Results on 2 compounds are retold here after US7332605B2, “Process for the synthesis of CXCR4 antagonist” (AnorMED, Inc., priority 2004, dated 2008).

Converted amounts (≈) assume the structure as drawn. Read-outs that look alike come from different tables or passages of the source.

For one data set, the system named is HIV, X4 (T-tropic) virus. Conditions: in humans; cited from earlier work.
Data set [1] can be described thus: Solubility of compound I in organic crystallization solvents. The data set is classed as physicochemical. Conditions: organic solvent or mixture. As to the method: A crystallization solvent (solvent B) is then added which can include, but is not limited to the following, or mixtures of the following: tetrahydrofuran, ethyl acetate, cumene, isopropyl acetate, n-propyl acetate, dichloromethane, ethanol, isopropanol, methanol, isopropyl ether, diethyl ether and t-butyl methyl ether. A preferred solvent is isopropyl acetate. A sufficient volume of solvent B is added to typically reach a complete solvation of compound I at an elevated temperature. The elevated temperature will depend on the nature of the solvent, with a reflux condition being the highest temperature possible.
The crystalline compound I may also be isolated from a number of different solvent systems. Compound I is soluble at >600 mg/mL in 55° C. tetrahydrofuran, and can be recovered as crystalline material by cooling the solution. Similarly, compound I can be isolated as crystalline material from a hot solution of cumene. Compound I is very soluble in dichloromethane (>700 mg/mL), but can be precipitated as a crystalline material from the solution through the addition of diethyl ether. Ethyl acetate is an effective solvent for crystallization, with solubilities of compound I of ca. 150 mg/mL at 60° C. being achievable.

Data set [2] can be described thus: Solubility of Formula I compound in aqueous media. It is filed as physicochemical. The following applies: aqueous media at a pH at or below 6.0. An excerpt:
The Formula I compound in freebase form, in a mixture of dichloromethane and another solvent can be washed with an aqueous base such as 0.5N sodium hydroxide to remove traces of hydrazine. The Formula I compound can then be extracted into a dilute aqueous acid such as 1N hydrochlororic acid. […] If the pH of the aqueous solution is below 5, it can then be adjusted to 5-7, with a preferred pH being 6.0 for the removal of impurities. Non-polar organic impurities will remain in the organic layer. A number of solvents can be used, if desired, for further extraction of non-polar organic impurities including ethyl acetate, methyl t-butyl ether, tetrahydrofuran, dichloromethane and chloroform.

On to `c1cc(CN2CCCNCCNCCCNCC2)ccc1CN1CCCNCCNCCCNCC1` [AMD3100], for which, in the data set on HIV, X4 (T-tropic) virus, the “effect on HIV viral load and X4 (T-tropic) virus levels” value was “reduce HIV viral load and X4 (T-tropic) virus levels”.

Take `NCCCCN(Cc1nc2ccccc2[nH]1)C1CCCc2cccnc21` (stereo not drawn) [Compound I, N′-(1H-benzimidazol-2-ylmethyl)-N′-(5,6,7,8-tetrahydro-quinolin-8-yl)-butane-1,4-diamine]: the solubility in data set [1] (60 °C, isopropyl acetate at 60-65° C., read-out: complete solubility in isopropyl acetate) is roughly 125 mg/mL (≈ 358 mM); in data set [1] (dichloromethane, read-out: solubility in dichloromethane), greater than 700 mg/mL; in data set [1] (55° C. tetrahydrofuran, read-out: solubility in tetrahydrofuran), greater than 600 mg/mL; in data set [1] (ethyl acetate at 60° C., read-out: solubility in ethyl acetate), roughly 150 mg/mL (≈ 429 mM). Further, in data set [2], the “solubility in aqueous media” value is “readily soluble”.
